Tests used:
E. uro-grandis B = assay: Rooting of cuttings, oxidized glutathione solution sprayed to phylloplane; format: in vivo, crossbreed of eucalyptus urophylla and eucalyptus grandis; settings: for Rooting rate (%): 88 test pieces; for Number of rooted shoots: of 88 test pieces
Description: Oxidized glutathione was applied to a phylloplane of a cutting. That is, the cutting was prepared in the same way as that in Example 5, except that a mother tree of the cutting was E. uro-grandis (Line name: B). Then a base of the cutting was planted to the supporter similar to Example 5. An oxidized glutathione solution was prepared in the same way as Example 5, and, immediately after the base was planted, the oxidized glutathione solution was sprayed to the phylloplane in the form of a mist by use of a spray etc. A spray amount of the glutathione solution was set to about 1.1 ml per shoot. A breeding condition after planting the shoot was similar to Example 5, and a rooting rate was calculated in the same way as Example 5.
A seedling was bred in the same way as Example 8, except that a solution having an oxidized glutathione concentration of 500 mg/L was used as the oxidized glutathione solution.
A seedling was bred in the same way as Example 8, except that a solution having an oxidized glutathione concentration of 1000 mg/L was used as the oxidized glutathione solution.

E. globulus (Clone H) = assay: Rooting of shoots with wounded base, line whose rooting is extremely difficult; format: in vivo, Eucalyptus globulus; settings: Example 21: 50 mg/L in medium
Description: (§1) A base of the shoot thus obtained was planted to a foaming phenolic resin porous supporter (Manufactured by Smithers-Oasis Company; Product name: Oasis). […] The base of the shoot was cultured for two months in carbon dioxide gas of 1000 ppm at a temperature of 25° C. under irradiation of red light having photosynthesis photon flux density of 51.3 μmol/m^2/S and having a wavelength component of 650 nm to 670 nm to a wavelength component of 450 nm to 470 nm at a ratio of 8.2:1.8. The culturing was carried out with a culture container, which was a cube container (maximum size of about 10 cm to 11.5 cm in length×10 cm to 11.5 cm in width×10.0 cm in height) having a shape whose bulge was slightly protruded. […] Carbon dioxide gas outside the culture container was allowed to enter the culture container through this carbon dioxide gas permeable membrane covering the opening. Accordingly, carbon dioxide gas concentration inside the culture container was about 1000 ppm due to the permeation of the carbon dioxide gas through the film covering the opening of the culture container. The culture container was irradiated with red light by use of a light irradiation device (Product name: CCFL unit, maker's name: Nippon Medical& Chemical Instruments CO., LTD.). Further, humidity in the culture container is adjusted by sealing the culture container with Parafilm.
(§2) Nine shoots were planted per culture container. A rooting rate was calculated from the number of test pieces of the shoot and the number of shoots (the number of rooted shoots) which had been rooted after the foliage was cultured for two months.

E. globulus (Clone G) = assay: as above; format: in vivo, Eucalyptus globulus; settings: Example 20: 50 mg/L in medium
Description: as §1, §2

E. globulus (Clone I) = assay: as above; format: in vivo, Eucalyptus globulus; settings: Example 22: 50 mg/L in medium
Description: as §1, §2

E. uro-grandis A = assay: Rooting of cuttings, oxidized glutathione solution sprayed to supporter; format: in vivo, crossbreed of eucalyptus urophylla and eucalyptus grandis; settings: three weeks
Description: A crossbreed of eucalyptus urophylla and eucalyptus grandis (hereinafter, abbreviated as an “E. uro-grandis”) (Line name: A) was used as a material of a cutting. Specifically, a graft grown to have a length of about 5 cm to 20 cm, about one to three joints, and about two to six leaves was cut out from a mother tree, and a tip of each leaf was cut off by cutting off about a half from the tip thereof. In this way, the cutting was prepared.
A composite soil of carbonized chaff, coconut fiber, and vermiculite which had been put into a seedling pot (3 cm in inner diameter×15 cm in height) in advance was used as a supporter. Oxidized glutathione was dissolved in water so that an oxidized glutathione concentration became 50 mg/L. The oxidized glutathione solution was thus prepared. The oxidized glutathione solution was sprayed to the seedling pot from the above by use of a watering can so that the supporter was soaked with the oxidized glutathione solution (50 mg/L) by spraying a spray amount of water of about 8.5 ml of the oxidized glutathione solution per seedling pot. Thereafter, a base of the cutting was planted to the supporter. After this planting, the cutting was bred for three weeks in a green house which shielded sunlight by 50%. In the green house, a high humidity (80% or more) was kept by frequently spraying mist. After three weeks from the planting, a rooting ratio was calculated from the number of rooted cuttings.
A seedling was bred in the same way as Example 4, except that a solution having an oxidized glutathione concentration of 200 mg/L was used as the oxidized glutathione solution.
A seedling was bred in the same way as Example 4, except that a solution having an oxidized glutathione concentration of 500 mg/L was used as the oxidized glutathione solution.
A seedling was bred in the same way as Example 4, except that a solution having an oxidized glutathione concentration of 1000 mg/L was used as the oxidized glutathione solution.

[1] = Example 9: 500 mg/L, sprayed to phylloplane
[2] = Example 10: 1000 mg/L, sprayed to phylloplane

## oxidized glutathione
E. uro-grandis B; Example 8: 200 mg/L, sprayed to phylloplane (about 1.1 ml per shoot), three weeks
  Rooting rate (%): 54.5%
E. uro-grandis B; Example 8: 200 mg/L, sprayed to phylloplane
  Number of rooted shoots: 48
E. uro-grandis B; [1]
  Rooting rate (%): 59.1%
  Number of rooted shoots: 52
E. uro-grandis B; [2]
  Rooting rate (%): 60.2%
  Number of rooted shoots: 53
E. globulus (Clone H); 5 test pieces
  Rooting rate (%): 40.0%
E. globulus (Clone H); of 5 test pieces
  Number of rooted shoots: 2
E. globulus (Clone G); 18 test pieces
  Rooting rate (%): 33.3%
E. globulus (Clone G); of 18 test pieces
  Number of rooted shoots: 6
E. globulus (Clone I); 5 test pieces
  Rooting rate (%): 20.0%
E. globulus (Clone I); of 5 test pieces
  Number of rooted shoots: 1
E. uro-grandis A; Example 4: 50 mg/L solution, spraying to supporter (about 8.5 ml per pot), 44 test pieces
  Rooting rate (%): 75.0%
E. uro-grandis A; Example 4: 50 mg/L, spraying to supporter, of 44 test pieces
  Number of rooted shoots: 33
E. uro-grandis A; Example 5: 200 mg/L, spraying to supporter, 44 test pieces
  Rooting rate (%): 77.3%
E. uro-grandis A; Example 5: 200 mg/L, spraying to supporter, of 44 test pieces
  Number of rooted shoots: 34
E. uro-grandis A; Example 6: 500 mg/L, spraying to supporter, 44 test pieces
  Rooting rate (%): 84.1%
E. uro-grandis A; Example 6: 500 mg/L, spraying to supporter, of 44 test pieces
  Number of rooted shoots: 37
E. uro-grandis A; Example 7: 1000 mg/L, spraying to supporter, 176 test pieces
  Rooting rate (%): 72.7%
E. uro-grandis A; Example 7: 1000 mg/L, spraying to supporter, of 176 test pieces
  Number of rooted shoots: 128

— patent US20140366440A1, “METHOD FOR PRODUCING CLONE SEEDLINGS” (OKAYAMA PREFECTURE, priority 2009, published 2014)
